From paper PMC10222328 (Pharmaceuticals, 2023)

Tests used:
[1] = system: carrageenan-induced rat paw edema; assay: Carrageenan-induced rat paw edema model; assay type: in vivo, Wistar albino rats; conditions: for Rat paw thickness: mean ± SD; for inhibition in vivo at 2.5 mg/kg / inhibition in vivo at 5 mg/kg / inhibition in vivo at 10 mg/kg: Rattus norvegicus, po
Experimental: In vivo assessment of anti-inflammatory activity of compounds 1–7 was conducted in the carrageenan-induced rat paw edema model. Inflammation in all rats was induced by an intraplantar injection of […] of 0.5% carrageenan saline in the left hind paw. Two hundred male Wistar albino rats (180–210 g) were divided into seven experimental (n = 168 rats, 8 rats per subgroup) and two control groups (n = 32 rats, 8 rats per subgroup).
Experimental groups involved rats that received compounds 1–7, and they were divided into three subgroups: rats received compounds 1–7 per os in three doses (2.5 mg/kg, 5 mg/kg, and 10 mg/kg) dissolved in 1% DMSO for 60 min before inducing inflammation.
In order to quantify the anti-inflammatory effect, the thickness of the left paw tissue of each rat was measured at the following time intervals: immediately before inducing inflammation (moment 0) and 1, 2, 3, and 4 h (moments 1, 2, 3, and 4) after inflammation. Tissue thickness was measured in the middle of the rat paw using a digital vernier caliper (Aerospace, Beijing, China).

[2] = target: T1, COX-2 (Homo sapiens, UniProt P35354); assay: Fluorometric COX-2 inhibitor screening kit; assay type: biochemical; conditions: at 10 µM; mean ± standard error of two measurements; read-out: COX-2 Percent of Inhibition
T1 construct: purchased Abcam, UK
T1 sequence (P35354 18-604): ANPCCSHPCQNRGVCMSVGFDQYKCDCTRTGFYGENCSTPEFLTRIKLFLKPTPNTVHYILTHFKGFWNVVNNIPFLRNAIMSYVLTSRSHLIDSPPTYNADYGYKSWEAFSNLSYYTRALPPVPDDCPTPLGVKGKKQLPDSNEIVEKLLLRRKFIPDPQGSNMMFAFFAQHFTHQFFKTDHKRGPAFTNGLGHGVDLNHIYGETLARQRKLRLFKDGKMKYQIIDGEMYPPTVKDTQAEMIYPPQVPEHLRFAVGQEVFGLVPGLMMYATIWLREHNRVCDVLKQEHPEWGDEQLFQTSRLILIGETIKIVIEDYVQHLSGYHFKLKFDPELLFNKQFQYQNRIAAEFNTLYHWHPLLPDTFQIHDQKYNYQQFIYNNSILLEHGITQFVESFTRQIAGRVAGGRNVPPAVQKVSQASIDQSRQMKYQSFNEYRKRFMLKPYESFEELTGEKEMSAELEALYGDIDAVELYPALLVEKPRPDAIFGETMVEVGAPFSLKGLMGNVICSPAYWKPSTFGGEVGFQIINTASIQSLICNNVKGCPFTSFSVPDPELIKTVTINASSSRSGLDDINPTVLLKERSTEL
Experimental: (§1) COX-2 and 5-LOX inhibitory activities were tested using fluorometric COX-2 and 5-LOX inhibitor screening kits (Abcam, UK). These assays are based on the fluorometric detection of Prostaglandin G2 (a product generated by the COX enzyme) or on the fluorometric detection of intermediate generated by the 5-LOX enzyme. The experiments were conducted according to the manufacturers’ instructions.
(§2) For the determination of COX-2 inhibitory activity, tested compounds were dissolved in DMSO (5 mM stock solutions) and then diluted with the same solvent to obtain test solutions. Test solutions were further diluted 5X with COX assay buffer (2 µL of test solution and 8 µL COX assay buffer). […] Solvent control (SC) was prepared by adding 2 µL DMSO and 8 µL COX assay buffer, while sample (S) and enzyme control (EC) were prepared by adding 10 µL of diluted test solution and COX assay buffer, respectively, into assigned wells. For the determination of 5-LOX inhibitory activity, tested compounds were also dissolved in DMSO to prepare stock solutions with the same concentration (5mM), which were then diluted with the same solvent to obtain test solutions. Subsequently, test solutions were added to corresponding wells (2 µL).

[3] = target: T2, 5-LOX (Homo sapiens, UniProt P09917); assay: Fluorometric 5-LOX inhibitor screening kit; assay type: biochemical; conditions: mean ± standard error of two measurements; for inhibition at 10 µM: read-out: 5-LOX Percent of Inhibition
T2 construct: purchased Abcam, UK
T2 sequence (P09917 1-674): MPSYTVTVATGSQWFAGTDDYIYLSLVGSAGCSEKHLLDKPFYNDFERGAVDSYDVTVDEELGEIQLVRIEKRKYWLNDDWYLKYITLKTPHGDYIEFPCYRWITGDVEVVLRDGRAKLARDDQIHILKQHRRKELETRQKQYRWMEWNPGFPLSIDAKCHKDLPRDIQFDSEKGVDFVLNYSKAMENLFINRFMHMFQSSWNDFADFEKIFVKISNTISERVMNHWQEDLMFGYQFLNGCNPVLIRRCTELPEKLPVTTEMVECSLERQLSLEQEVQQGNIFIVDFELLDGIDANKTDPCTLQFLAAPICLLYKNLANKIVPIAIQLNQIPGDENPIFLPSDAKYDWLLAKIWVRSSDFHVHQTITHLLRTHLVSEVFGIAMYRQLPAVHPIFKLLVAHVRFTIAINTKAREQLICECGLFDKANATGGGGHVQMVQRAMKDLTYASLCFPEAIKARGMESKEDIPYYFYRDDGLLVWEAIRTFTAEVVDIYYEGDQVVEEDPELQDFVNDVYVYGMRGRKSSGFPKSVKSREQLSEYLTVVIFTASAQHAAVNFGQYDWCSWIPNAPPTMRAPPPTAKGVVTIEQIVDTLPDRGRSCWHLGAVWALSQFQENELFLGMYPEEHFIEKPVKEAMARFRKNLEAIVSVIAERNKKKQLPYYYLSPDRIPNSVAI
Experimental: as §1, §2

[4] = 2.5 mg/kg per os, 1 h after carrageenan
[5] = 2.5 mg/kg per os, 2 h after carrageenan
[6] = 2.5 mg/kg per os, 3 h after carrageenan
[7] = 2.5 mg/kg per os, 4 h after carrageenan
[8] = 5.0 mg/kg per os, 1 h after carrageenan
[9] = 5.0 mg/kg per os, 2 h after carrageenan
[10] = 5.0 mg/kg per os, 3 h after carrageenan
[11] = 5.0 mg/kg per os, 4 h after carrageenan
[12] = 10.0 mg/kg per os, 1 h after carrageenan
[13] = 10.0 mg/kg per os, 2 h after carrageenan
[14] = 10.0 mg/kg per os, 4 h after carrageenan
[15] = 1 h, 2.5 mg/kg per os, 1 h after carrageenan
[16] = 1 h, 5.0 mg/kg per os, 1 h after carrageenan
[17] = 1 h, 10.0 mg/kg per os, 1 h after carrageenan
[18] = 2 h, 2.5 mg/kg per os, 2 h after carrageenan
[19] = 2 h, 5.0 mg/kg per os, 2 h after carrageenan
[20] = 2 h, 10.0 mg/kg per os, 2 h after carrageenan
[21] = 3 h, 2.5 mg/kg per os, 3 h after carrageenan
[22] = 3 h, 5.0 mg/kg per os, 3 h after carrageenan
[23] = 3 h, 10.0 mg/kg per os, 3 h after carrageenan
[24] = 4 h, 2.5 mg/kg per os, 4 h after carrageenan
[25] = 4 h, 5.0 mg/kg per os, 4 h after carrageenan
[26] = 4 h, 10.0 mg/kg per os, 4 h after carrageenan
[27] = 10.0 mg/kg per os, 3 h after carrageenan

Row | Compound | Rat paw thickness [1, 4] | Rat paw thickness [1, 5] | Rat paw thickness [1, 6] | Rat paw thickness [1, 7] | Rat paw thickness [1, 8] | Rat paw thickness [1, 9] | Rat paw thickness [1, 10] | Rat paw thickness [1, 11] | Rat paw thickness [1, 12] | Rat paw thickness [1, 13] | Rat paw thickness [1, 14] | inhibition in vivo at 2.5 mg/kg [1, 15] | inhibition in vivo at 5 mg/kg [1, 16] | inhibition in vivo at 10 mg/kg [1, 17] | inhibition in vivo at 2.5 mg/kg [1, 18] | inhibition in vivo at 5 mg/kg [1, 19] | inhibition in vivo at 10 mg/kg [1, 20] | inhibition in vivo at 2.5 mg/kg [1, 21] | inhibition in vivo at 5 mg/kg [1, 22] | inhibition in vivo at 10 mg/kg [1, 23] | other results
1 | COc1ccc2cc([C@H](C)C(=O)NC(=S)Nc3ccc(C(C)=O)cc3)ccc2c1 [Compound 5, (S)-N-((4-acetylphenyl)carbamothioyl)-2-(6-methoxynaphthalen-2-yl)propanamide] | 5.73 ± 0.12 mm | 5.37 ± 0.25 mm | 5.20 ± 0.20 mm | 4.57 ± 0.15 mm | 5.05 ± 0.07 mm | 4.85 ± 0.07 mm | 4.40 ± 0.14 mm | 3.95 ± 0.07 mm | 5.5 ± 0.71 mm | 5.35 ± 0.64 mm | 4.75 ± 0.49 mm | 10.7% | 19.6% | 38.1% | 17.2% | 19.5% | 37.9% | 10.5% | 28.8% | 39.7% | inhibition in vivo at 2.5 mg/kg [1, 24]: 31%; inhibition in vivo at 5 mg/kg [1, 25]: 41.4%; inhibition in vivo at 10 mg/kg [1, 26]: 47 to 54%; inhibition at 10 µM [2]: 19.6 ± 4.55%; inhibition at 10 µM [3]: 46.2 ± 4.87%; IC50 [3]: 16.7 ± 1.79 µM
2 | COc1cccc(NC(=S)NC(=O)[C@@H](C)c2ccc3cc(OC)ccc3c2)c1 [Compound 4, (S)-2-(6-methoxynaphthalen-2-yl)-N-((3-methoxyphenyl)carbamothioyl)propanamide] | 5.93 ± 0.25 mm | 5.40 ± 0.10 mm | 5.17 ± 0.15 mm | 4.90 ± 0.10 mm | 6.10 ± 0.44 mm | 5.97 ± 0.25 mm | 5.70 ± 0.46 mm | 5.22 ± 0.50 mm | 6.00 ± 0.10 mm | 5.70 ± 0.20 mm | 4.90 ± 0.20 mm | 21.6% | 29.9% | 27.1% | 37.2% | 28% | 32.6% | 37.9% | 28.8% | 41.5% | Rat paw thickness [1, 27]: 5.30 ± 0.17 mm; inhibition in vivo at 2.5 mg/kg [1, 24]: 40.5%; inhibition in vivo at 5 mg/kg [1, 25]: 43.2%; inhibition in vivo at 10 mg/kg [1, 26]: 54%; inhibition at 10 µM [2]: 37.71 ± 0.28%; inhibition at 10 µM [3]: 77.2 ± 0.26%; IC50 [3]: 0.3 ± 0.12 µM
3 | COc1ccc(NC(=S)NC(=O)[C@@H](C)c2ccc3cc(OC)ccc3c2)cc1 [Compound 2, (S)-2-(6-methoxynaphthalen-2-yl)-N-((4-methoxyphenyl)carbamothioyl)propanamide] | 6.57 ± 1.16 mm | 6.07 ± 0.72 mm | 5.77 ± 0.42 mm | 5.30 ± 0.26 mm | 7.03 ± 0.47 mm | 6.40 ± 0.53 mm | 5.70 ± 0.20 mm | 5.53 ± 0.29 mm | 6.5 ± 0.40 mm | 6.17 ± 0.67 mm | 5.33 ± 0.25 mm | 9.28% | 6.53% | 23% | 21.8% | 24.9% | 29.5% | 23.3% | 48.9% | 50.7% | Rat paw thickness [1, 27]: 5.53 ± 0.15 mm; inhibition in vivo at 2.5 mg/kg [1, 24]: 35.6%; inhibition in vivo at 5 mg/kg [1, 25]: 47.1%; inhibition in vivo at 10 mg/kg [1, 26]: 51.7%; inhibition at 10 µM [2]: 18.8 ± 4.37%; inhibition at 10 µM [3]: 25.1 ± 1.83%; IC50 [3]: 39.8 ± 1.98 µM
